Reference: patent US20070010507A1, “Compounds useful in the therapy of alzheimer's disease and formulations containing them” (priority 2003, published 2007)

Tested on: α-secretase-mediated APP metabolism (SH-SY5Y neuroblastoma cells)
Experiment: α-secretase-induced APPs release in culture medium of neuroblastoma cell line SH-SY5Y
Format: cell-based
Conditions: APPs secreted in culture medium of SH-SY5Y cells, control = 100
Protocol: The salts according to the present invention are stable crystalline products having strong antidepressive and anti-Alzheimer actions. The effect of the compounds of the invention on α-secretase-induced APPs release was determined in the culture medium of a neuroblastoma cell line (SH-SY5Y) according to what reported by Galbete J. L. et al. in Biochem. 348,307-313, 2000.

Compound | APPs % (concentration not given) | APPs % (10 μM)
COc1ccc2c3c1O[C@H]1C[C@@H](O)C=C[C@@]31CCN(C)C2 [Galantamine] | 302% | –
CC(C)=CCC[C@]1(C)[C@@H](CC=C(C)C)C[C@@]2(CC=C(C)C)C(=O)[C@]1(C(=O)C(C)C)C(=O)C(CC=C(C)C)=C2O.COc1ccc2c3c1O[C@H]1C[C@@H](O)C=C[C@@]31CCN(C)C2 [Galantamonium hyperforinate] | 773% | –
CC(C)CCCC1(C)C(CCC(C)C)CC2(CCC(C)C)C(=O)C1(C(=O)C(C)C)C(=O)C(CCC(C)C)=C2O.COc1ccc2c3c1OC1CC(O)C=CC31CCN(C)C2 (stereo not drawn) [Galantamonium octahydrohyperforinate, Galantamine octahydrohyperforinate] | – | 3652%
CC(C)=CCC[C@]1(C)[C@@H](CC=C(C)C)C[C@@]2(CC=C(C)C)C(=O)[C@]1(C(=O)C(C)C)C(=O)C(CC=C(C)C)=C2O [Hyperforin] | – | 296%
CC(C)CCC[C@]1(C)[C@@H](CCC(C)C)C[C@@]2(CCC(C)C)C(=O)[C@]1(C(=O)C(C)C)C(=O)C(CCC(C)C)=C2O [Octahydrohyperforin] | – | 1383%
Memantine octahydrohyperforinate [Mentamine octahydrohyperforinate] | – | 3221%
